US20050208496A1, “Methods of testing for bronchial asthma or chronic obstructive pulmonary disease” (Genox Research, Inc., priority 2002, published 2005)
Read-outs that look alike come from different tables or passages of the source.

Tested on: respiratory epithelial cells

IL-13: human IL-13 (Peprotech, Inc.) added to the medium at 50 ng/mL to stimulate respiratory epithelial cells
pendrin gene expression level, factor of increase in response to IL-13 stimulation (AI method, day 3 and day 7, both Lots 1 and 2): ten or more
AKR1C1 (32805_at) expression change upon IL-13 stimulation (HG-U95A, lot 1, Day 3, AI): −2.7
ALDH3B2 (37956_at) expression change upon IL-13 stimulation (HG-U95A, lot 1, Day 3, AI): −7.4
AP1G1 (35275_at) expression change upon IL-13 stimulation (HG-U95A, lot 1, Day 3, AI): −3.6
CA12 (36454_at) expression change upon IL-13 stimulation (HG-U95A, lot 1, Day 3, AI): −4
CHL1 (34193_at) expression change upon IL-13 stimulation (HG-U95A, lot 1, Day 3, AI): −2.5
CMAH (39317_at) expression change upon IL-13 stimulation (HG-U95A, lot 1, Day 3, AI): −2.2
E48 (36284_at) expression change upon IL-13 stimulation (HG-U95A, lot 1, Day 3, AI): −10.3
EPHX1 (38790_at) expression change upon IL-13 stimulation (HG-U95A, lot 1, Day 3, AI): −3
FMO2.3 (34935_at) expression change upon IL-13 stimulation (HG-U95A, lot 1, Day 3, AI): −2.2
GLUL (40522_at) expression change upon IL-13 stimulation (HG-U95A, lot 1, Day 3, AI): −3.8
GSTA4 (40508_at) expression change upon IL-13 stimulation (HG-U95A, lot 1, Day 3, AI): −8
HGNC, keratinocyte transglutaminase gene (35947_at) expression change upon IL-13 stimulation (HG-U95A, lot 1, Day 3, AI): −2
KIAA0843 (39597_at) expression change upon IL-13 stimulation (HG-U95A, lot 1, Day 3, AI): −2.2
LGALS1 (33412_at) expression change upon IL-13 stimulation (HG-U95A, lot 1, Day 3, AI): −2
PYGL (37215_at) expression change upon IL-13 stimulation (HG-U95A, lot 1, Day 3, AI): −2.2
SCYD1 (823_at) expression change upon IL-13 stimulation (HG-U95A, lot 1, Day 3, AI): −2.2
SDC1 (38127_at) expression change upon IL-13 stimulation (HG-U95A, lot 1, Day 3, AI): −2.2
TGFBI (1385_at) expression change upon IL-13 stimulation (HG-U95A, lot 1, Day 3, AI): −3.8
ADH1A (34637_f_at) expression change upon IL-13 stimulation (HG-U95A, lot 1, Day 3, IMM): −3
AP1G1 (35275_at) expression change upon IL-13 stimulation (HG-U95A, lot 1, Day 3, IMM): −2.8
CA12 (36454_at) expression change upon IL-13 stimulation (HG-U95A, lot 1, Day 3, IMM): −3.5
CLDN10 (39579_at) expression change upon IL-13 stimulation (HG-U95A, lot 1, Day 3, IMM): −2.3
GLUL (40522_at) expression change upon IL-13 stimulation (HG-U95A, lot 1, Day 3, IMM): −2.9
GPX3 (770_at) expression change upon IL-13 stimulation (HG-U95A, lot 1, Day 3, IMM): −3.2
KIAA0843 (39597_at) expression change upon IL-13 stimulation (HG-U95A, lot 1, Day 3, IMM): −2.3
TGFBI (1385_at) expression change upon IL-13 stimulation (HG-U95A, lot 1, Day 3, IMM): −2.2
ADH1A (34637_f_at) expression change upon IL-13 stimulation (HG-U95A, lot 1, Day 7, AI): −6.1
ADH1C (36247_f_at) expression change upon IL-13 stimulation (HG-U95A, lot 1, Day 7, AI): −4.1
AKR1C1 (32805_at) expression change upon IL-13 stimulation (HG-U95A, lot 1, Day 7, AI): −3.2
ALDH3B2 (37956_at) expression change upon IL-13 stimulation (HG-U95A, lot 1, Day 7, AI): −6.8
AP1G1 (35275_at) expression change upon IL-13 stimulation (HG-U95A, lot 1, Day 7, AI): −3.9
ATP10B (37415_at) expression change upon IL-13 stimulation (HG-U95A, lot 1, Day 7, AI): −3.2
BLMH (37700_at) expression change upon IL-13 stimulation (HG-U95A, lot 1, Day 7, AI): −2.1
CA12 (36454_at) expression change upon IL-13 stimulation (HG-U95A, lot 1, Day 7, AI): −6.3
CLDN10 (39579_at) expression change upon IL-13 stimulation (HG-U95A, lot 1, Day 7, AI): −4.6
CMAH (39317_at) expression change upon IL-13 stimulation (HG-U95A, lot 1, Day 7, AI): −4.4
CP (39008_at) expression change upon IL-13 stimulation (HG-U95A, lot 1, Day 7, AI): −3.6
CRYM (38285_at) expression change upon IL-13 stimulation (HG-U95A, lot 1, Day 7, AI): −4.2
CSPG2 (38112_g_at) expression change upon IL-13 stimulation (HG-U95A, lot 1, Day 7, AI): −2.1
DHCR24 (36658_at) expression change upon IL-13 stimulation (HG-U95A, lot 1, Day 7, AI): −2.3
DSG3 (33693_at) expression change upon IL-13 stimulation (HG-U95A, lot 1, Day 7, AI): −3.6
E48 (36284_at) expression change upon IL-13 stimulation (HG-U95A, lot 1, Day 7, AI): −7.2
EPHX1 (38790_at) expression change upon IL-13 stimulation (HG-U95A, lot 1, Day 7, AI): −3
FACL2 (40082_at) expression change upon IL-13 stimulation (HG-U95A, lot 1, Day 7, AI): −2.7
FMO3 (40665_at) expression change upon IL-13 stimulation (HG-U95A, lot 1, Day 7, AI): −2.1
GLUL (40522_at) expression change upon IL-13 stimulation (HG-U95A, lot 1, Day 7, AI): −3
GPX3 (770_at) expression change upon IL-13 stimulation (HG-U95A, lot 1, Day 7, AI): −6.5
GSTA4 (40508_at) expression change upon IL-13 stimulation (HG-U95A, lot 1, Day 7, AI): −3.8
HGNC, keratinocyte transglutaminase gene (35947_at) expression change upon IL-13 stimulation (HG-U95A, lot 1, Day 7, AI): −3.2
KIAA0843 (39597_at) expression change upon IL-13 stimulation (HG-U95A, lot 1, Day 7, AI): −2.6
KIAA0878 (32215_1_at) expression change upon IL-13 stimulation (HG-U95A, lot 1, Day 7, AI): −3.4
KIAA1055 (39400_at) expression change upon IL-13 stimulation (HG-U95A, lot 1, Day 7, AI): −5.3
LCE (40943_at) expression change upon IL-13 stimulation (HG-U95A, lot 1, Day 7, AI): −2
LGALS1 (33412_at) expression change upon IL-13 stimulation (HG-U95A, lot 1, Day 7, AI): −6.8
PYGL (37215_at) expression change upon IL-13 stimulation (HG-U95A, lot 1, Day 7, AI): −3.2
SCYD1 (823_at) expression change upon IL-13 stimulation (HG-U95A, lot 1, Day 7, AI): −8.5
TGFBI (1385_at) expression change upon IL-13 stimulation (HG-U95A, lot 1, Day 7, AI): −5.3
TNFAIP2 (38631_at) expression change upon IL-13 stimulation (HG-U95A, lot 1, Day 7, AI): −4.4
AKR1C1 (32805_at) expression change upon IL-13 stimulation (HG-U95A, lot 1, Day 7, IMM): −3.1
AP1G1 (35275_at) expression change upon IL-13 stimulation (HG-U95A, lot 1, Day 7, IMM): −3.7
CA12 (36454_at) expression change upon IL-13 stimulation (HG-U95A, lot 1, Day 7, IMM): −4
CHL1 (34193_at) expression change upon IL-13 stimulation (HG-U95A, lot 1, Day 7, IMM): 2.1
CP (39008_at) expression change upon IL-13 stimulation (HG-U95A, lot 1, Day 7, IMM): −2.6
FMO2.3 (34935_at) expression change upon IL-13 stimulation (HG-U95A, lot 1, Day 7, IMM): −2.4
GPX3 (770_at) expression change upon IL-13 stimulation (HG-U95A, lot 1, Day 7, IMM): −6
HGNC, keratinocyte transglutaminase gene (35947_at) expression change upon IL-13 stimulation (HG-U95A, lot 1, Day 7, IMM): −3.7
KIAA0878 (32215_1_at) expression change upon IL-13 stimulation (HG-U95A, lot 1, Day 7, IMM): −2.3
PYGL (37215_at) expression change upon IL-13 stimulation (HG-U95A, lot 1, Day 7, IMM): −2.7
TGFBI (1385_at) expression change upon IL-13 stimulation (HG-U95A, lot 1, Day 7, IMM): −3
ADH1C (36247_f_at) expression change upon IL-13 stimulation (HG-U95A, lot 2, Day 3, AI): −6.1
AKR1C1 (32805_at) expression change upon IL-13 stimulation (HG-U95A, lot 2, Day 3, AI): −2.4
ALDH3B2 (37956_at) expression change upon IL-13 stimulation (HG-U95A, lot 2, Day 3, AI): −6.9
AP1G1 (35275_at) expression change upon IL-13 stimulation (HG-U95A, lot 2, Day 3, AI): −2.8
CA12 (36454_at) expression change upon IL-13 stimulation (HG-U95A, lot 2, Day 3, AI): −6.5
CHL1 (34193_at) expression change upon IL-13 stimulation (HG-U95A, lot 2, Day 3, AI): −4.3
CLDN10 (39579_at) expression change upon IL-13 stimulation (HG-U95A, lot 2, Day 3, AI): −5.4
CMAH (39317_at) expression change upon IL-13 stimulation (HG-U95A, lot 2, Day 3, AI): −7.4
CP (39008_at) expression change upon IL-13 stimulation (HG-U95A, lot 2, Day 3, AI): −3.9
DHCR24 (36658_at) expression change upon IL-13 stimulation (HG-U95A, lot 2, Day 3, AI): −2.1
E48 (36284_at) expression change upon IL-13 stimulation (HG-U95A, lot 2, Day 3, AI): −3.8
EPHX1 (38790_at) expression change upon IL-13 stimulation (HG-U95A, lot 2, Day 3, AI): −3
FMO2.3 (34935_at) expression change upon IL-13 stimulation (HG-U95A, lot 2, Day 3, AI): −3.7
FMO3 (40665_at) expression change upon IL-13 stimulation (HG-U95A, lot 2, Day 3, AI): −2.3
GLUL (40522_at) expression change upon IL-13 stimulation (HG-U95A, lot 2, Day 3, AI): −3.5
GPX3 (770_at) expression change upon IL-13 stimulation (HG-U95A, lot 2, Day 3, AI): −12.2
GSTA4 (40508_at) expression change upon IL-13 stimulation (HG-U95A, lot 2, Day 3, AI): −2.8
HGNC, keratinocyte transglutaminase gene (35947_at) expression change upon IL-13 stimulation (HG-U95A, lot 2, Day 3, AI): −2.7
KIAA0843 (39597_at) expression change upon IL-13 stimulation (HG-U95A, lot 2, Day 3, AI): −2.1
KIAA0878 (32215_1_at) expression change upon IL-13 stimulation (HG-U95A, lot 2, Day 3, AI): −2.4
LGALS1 (33412_at) expression change upon IL-13 stimulation (HG-U95A, lot 2, Day 3, AI): −2.6
PYGL (37215_at) expression change upon IL-13 stimulation (HG-U95A, lot 2, Day 3, AI): −2.2
SCYD1 (823_at) expression change upon IL-13 stimulation (HG-U95A, lot 2, Day 3, AI): −2.1
TGFBI (1385_at) expression change upon IL-13 stimulation (HG-U95A, lot 2, Day 3, AI): −3.1
TNFAIP2 (38631_at) expression change upon IL-13 stimulation (HG-U95A, lot 2, Day 3, AI): −2.4
ADH1A (34637_f_at) expression change upon IL-13 stimulation (HG-U95A, lot 2, Day 7, AI): −20.5
ADH1C (36247_f_at) expression change upon IL-13 stimulation (HG-U95A, lot 2, Day 7, AI): −14.2
ALDH3B2 (37956_at) expression change upon IL-13 stimulation (HG-U95A, lot 2, Day 7, AI): −27.6
AP1G1 (35275_at) expression change upon IL-13 stimulation (HG-U95A, lot 2, Day 7, AI): −2.6
ATP10B (37415_at) expression change upon IL-13 stimulation (HG-U95A, lot 2, Day 7, AI): −3
BLMH (37700_at) expression change upon IL-13 stimulation (HG-U95A, lot 2, Day 7, AI): −2.5
CA12 (36454_at) expression change upon IL-13 stimulation (HG-U95A, lot 2, Day 7, AI): −3
CHL1 (34193_at) expression change upon IL-13 stimulation (HG-U95A, lot 2, Day 7, AI): −7.3
CLDN10 (39579_at) expression change upon IL-13 stimulation (HG-U95A, lot 2, Day 7, AI): −5.4
CMAH (39317_at) expression change upon IL-13 stimulation (HG-U95A, lot 2, Day 7, AI): −14.4
CP (39008_at) expression change upon IL-13 stimulation (HG-U95A, lot 2, Day 7, AI): −6.2
